Publication PMC11148078, “Potent activity of polymyxin B is associated with long-lived super-stoichiometric accumulation mediated by weak-affinity binding to lipid A” (Nature Communications, 2024)
Bridge positions count the residues as written; N and C are the ends. Square brackets hold non-standard residues; d marks the D form. Peptide text beside a SMILES is read from it. * marks the point of attachment. X1 = CC[C@H](C)CCCCC(=O)*; Dab = NCC[C@H](N)C(=O)O

Assays:
[1] = system: E. coli PmrA^G53E+rifampicin; test: Rifampicin potentiation / outer membrane permeability, E. coli PmrA^G53E; type: cell-based
Experimental: (§1) Bacterial strains and plasmids are listed in SI Table S5. LB growth media was prepared according to manufacturer’s instructions and supplemented with 0.2% arabinose and carbenicillin (50 μg/mL) for the strains containing pBAD24-mcr1 plasmid. Cultures were started by inoculating 3 ml LB with 1–2 colonies from fresh overnight plates and grown at 37 °C until in log phase. Modified minimal inhibitory concentration (MIC) assays were performed in 96-well round bottom polystyrene plates (Corning) with a final volume of 100 µl in LB supplemented with tween-80 at 0.0005%. […] Polymyxin B sulfate (TCI Co. Ltd), polymyxin B nonapeptide (PMBN) (Sigma), and brevicidine (Genentech) were diluted directly in the assay plates. Bacteria were diluted in LB with tween-80 0.0005% and added to a final OD600 of 0.0005. Growth was measured via OD600 on a SpectraMax M5 plate reader after overnight static growth at 37 °C with humidity.

[2] = system: E. coli mcr-1+rifampicin; test: Rifampicin potentiation / outer membrane permeability, E. coli mcr-1; type: cell-based
Experimental: as §1

[3] = system: wild-type E. coli cells; test: Whole cell SPR, wild-type E. coli; type: binding
Experimental: Bacterial strains were grown in LB or LB with 0.2% arabinose and carbenicillin (50 μg/mL) to log phase (OD600 approximately 0.4–0.6), centrifuged for 10 min at 2500 × g (3500 rpm using a tabletop centrifuge), and re-suspended in PBS to a final OD600 of approximately 5. SPR on whole bacterial cells was performed and analyzed as described for OMVs on C1 chip, but with an additional carry-over wash prior to the capture. Regeneration of the chip after whole cell binding also required additional steps ([…] flow rate): (1) PBS supplemented with 32 mM MgCl2 for 120 s, (2) 2.5 M NaCl for 30 s, (3) 0.5% SDS (Desorb 1, Cytiva) for 60 s with carry over controls between.

[4] = molecular target: resistant-OMVs; test: SPR steady-state affinity of reversible binding, resistant-OMVs; set-up: species or system E. coli; settings: no pre-saturation; n=4 (polymyxin B), n=3 (PMBN), (SD); read-out: Apparent KD
Experimental: An apparent-KD was measured for the reversible saw-tooth binding profile where polymyxin B was titrated over an OMV surface pre-saturated with the stable binding component (Supplementary Information Fig. S11B). […] No pre-saturation was necessary when using resistant-OMVs or PMBN as these lack the stable component (Fig. 2B, D–F).
Binding and kinetic analysis of SPR-OMV assays
To determine the apparent- KD of the reversible binding event of polymyxin B, single-cycle kinetics were performed as described in Materials and Methods. After OMVs were loaded, 5 µM polymyxin B was injected for 360 sec ([…] flow rate) followed by 120 sec dissociations to saturate the stable-binding population prior to the sample injections. The base-to-peak value of each trace was determined from double-referenced traces (reference 1: - OMVs/ + compound channel; reference 2: + OMVs/ - compound) exported from the Biacore S200 evaluation software into PRISM 9 software. The change in RU with each pulse was plotted over the concentration and the KD determined by fitting a non-linear regression, one-site total function with background parameter set to 0 (GraphPad Prism version 9.3.1 for Mac, GraphPad Software, San Diego, California USA, www.graphpad.com). […]

| Compound | MIC in presence of rifampicin [1] | MIC in presence of rifampicin [2] | SPR binding profile [3] | Kd [4] | outer membrane permeabilization / rifampicin potentiation [1] | outer membrane permeabilization / rifampicin potentiation [2] |
| --- | --- | --- | --- | --- | --- | --- |
| CC(C)C[C@@H]1NC(=O)[C@@H](Cc2ccccc2)NC(=O)[C@H](CCN)NC(=O)[C@@H](NC(=O)[C@H](CCN)NC(=O)[C@@H](N)[C@@H](C)O)CCNC(=O)[C@H]([C@@H](C)O)NC(=O)[C@H](CCN)NC(=O)[C@H](CCN)NC1=O [PMBN] (H-T[Dab][Dab][Dab][dF]L[Dab][Dab]T; lactam 3-C) | 20 µM | 2.5 µM | exhibited only weak, saw-tooth binding | 371 nM |  |  |
| CC[C@H](C)CCCCC(=O)N[C@@H](CCN)C(=O)N[C@H](C(=O)N[C@@H](CCN)C(=O)N[C@H]1CCNC(=O)[C@H]([C@@H](C)O)NC(=O)[C@H](CCN)NC(=O)[C@H](CCN)NC(=O)[C@H](CC(C)C)NC(=O)[C@@H](Cc2ccccc2)NC(=O)[C@H](CCN)NC1=O)[C@@H](C)O [Polymyxin B] (X1-[Dab]T[Dab][Dab][Dab][dF]L[Dab][Dab]T; lactam 4-C (inferred); N-terminus assumed) | 0.001 µM | 0.001 µM | same polymyxin B binding profiles were observed | 273 nM | still potentiated the activity of an antibiotic normally excluded by the outer membrane, rifampicin | still potentiated the activity of an antibiotic normally excluded by the outer membrane, rifampicin |
